Measured values: ChEMBL document CHEMBL1145662, “Catharanthus alkaloids, XXXVIII. Confirming structural evidence and antineoplastic activity of the bisindole alkaloids leurosine-N'b-oxide (pleurosine), roseadine and vindolicine from Catharanthus roseus” (J Nat Prod, 1983)

Experiments:
[1] = system: P388; experiment: Antitumor activity against mouse P388 cells xenografted in CD2F1 mouse at 12.5 mg/kg on 3rd, 6th and 9th day relative to control; assay type: functional
[2] = system: L1210; experiment: Antitumor activity against mouse L1210 cells xenografted in CD2F1 mouse at 20 mg/kg for 1 to 9 days relative to control; assay type: functional
[3] = system: MC-38; experiment: Antitumor activity against mouse Colon 38 cells xenografted in Swiss mouse at 20 mg/kg for 1 to 2 days relative to control; assay type: functional
[4] = system: MC-38; experiment: Antitumor activity against mouse Colon 38 cells xenografted in Swiss mouse at 10 mg/kg for 1 to 2 days relative to control; assay type: functional
[5] = system: B16; experiment: Antitumor activity against mouse B16 cells xenografted in B6C3F1 mouse at 2.5 mg/kg for 1 to 9 days relative to control; assay type: functional
[6] = system: P388; experiment: Antitumor activity against mouse P388 cells xenografted in CD2F1 mouse at 6.25 mg/kg on 3rd, 6th and 9th day relative to control; assay type: functional
[7] = system: P388; experiment: Antitumor activity against mouse P388 cells xenografted in CD2F1 mouse at 25 mg/kg for 1 to 9 days relative to control; assay type: functional
[8] = system: B16; experiment: Antitumor activity against mouse B16 cells xenografted in B6C3F1 mouse at 5 mg/kg for 1 to 9 days relative to control; assay type: functional
[9] = system: P388; experiment: Antitumor activity against mouse P388 cells xenografted in CD2F1 mouse at 12.5 mg/kg for 1 to 9 days relative to control; assay type: functional
[10] = system: P388; experiment: Antitumor activity against mouse P388 cells xenografted in CD2F1 mouse at 4 mg/kg after 1 day relative to control; assay type: functional
[11] = system: P388; experiment: Antitumor activity against mouse P388 cells xenografted in CD2F1 mouse at 8 mg/kg after 1 day relative to control; assay type: functional
[12] = system: B16; experiment: Antitumor activity against mouse B16 cells xenografted in B6C3F1 mouse at 10 mg/kg for 1 to 9 days relative to control; assay type: functional
[13] = system: CX-1; experiment: Antitumor activity against human CX-1 cells xenografted in Swiss nu/nu athymic mouse at 20 mg/kg on 4th,8th,12th and 16th day relative to control; assay type: functional
[14] = system: L1210; experiment: Antitumor activity against mouse L1210 cells xenografted in CD2F1 mouse at 5 mg/kg for 1 to 9 days relative to control; assay type: functional
[15] = system: P388; experiment: Antitumor activity against mouse P388 cells xenografted in CD2F1 mouse at 25 mg/kg on 3rd, 6th and 9th day relative to control; assay type: functional
[16] = system: P388; experiment: Antitumor activity against mouse P388 cells xenografted in CD2F1 mouse at 16 mg/kg after 1 day relative to control; assay type: functional
[17] = system: CX-1; experiment: Antitumor activity against human CX-1 cells xenografted in Swiss nu/nu athymic mouse at 160 mg/kg on 4th,8th,12th and 16th day relative to control; assay type: functional
[18] = system: P388; experiment: Antitumor activity against mouse P388 cells xenografted in CD2F1 mouse at 6.25 mg/kg for 1 to 9 days relative to control; assay type: functional
[19] = system: CX-1; experiment: Antitumor activity against human CX-1 cells xenografted in Swiss nu/nu athymic mouse at 80 mg/kg on 4th,8th,12th and 16th day relative to control; assay type: functional
[20] = system: Mus musculus; experiment: Toxicity in mouse P388 cells xenografted in CD2F1 mouse at 20 mg/kg; assay type: organism-based; parameters: dose 20 mg/kg; conditions: in vivo
[21] = system: CX-1; experiment: Antitumor activity against human CX-1 cells xenografted in Swiss nu/nu athymic mouse at 40 mg/kg on 4th,8th,12th and 16th day relative to control; assay type: functional
[22] = system: P388; experiment: Antitumor activity against mouse P388 cells xenografted in CD2F1 mouse at 32 mg/kg after 1 day relative to control; assay type: functional
[23] = system: L1210; experiment: Antitumor activity against mouse L1210 cells xenografted in CD2F1 mouse at 10 mg/kg for 1 to 9 days relative to control; assay type: functional
[24] = system: MC-38; experiment: Antitumor activity against mouse Colon 38 cells xenografted in Swiss mouse at 5 mg/kg for 1 to 2 days relative to control; assay type: functional
[25] = system: P388; experiment: Antitumor activity against mouse P388 cells xenografted in CD2F1 mouse at 2 mg/kg relative to control; assay type: functional
[26] = system: P388; experiment: Antitumor activity against mouse P388 cells xenografted in CD2F1 mouse at 1 mg/kg relative to control; assay type: functional
[27] = system: B16; experiment: Antitumor activity against mouse B16 cells xenografted in B6C3F1 mouse at 0.5 mg/kg relative to control; assay type: functional

For CC[C@@]12C[N+]3([O-])CCc4c([nH]c5ccccc45)[C@@](C(=O)OC)(c4cc5c(cc4OC)N(C)[C@H]4[C@@](O)(C(=O)OC)[C@H](OC(C)=O)[C@]6(CC)C=CCN7CC[C@]54[C@@H]76)C[C@@H](C[C@@H]1O2)C3, the T/C [1] was 177%, the T/C [2] was 112% and the T/C [3] was 82%. For the same molecule, the T/C [4] was 108%, the T/C [5] was 189% and the T/C [6] was 168%. For the same molecule, the T/C [7] was 181%, the T/C [8] was 261% and the T/C [9] was 163%. It also gave a T/C [10] of 142%, a T/C [11] of 161% and a T/C [12] of 309%. For the same molecule, the T/C [13] was 81%, the T/C [14] was 101% and the T/C [15] was 181%. For the same molecule, the T/C [16] was 193%, the T/C [17] was 71% and the T/C [18] was 154%. The T/C [19] was 85%, the Activity [20] was “Toxic” and the T/C [21] was 60%. It also gave a T/C [22] of 140%, a T/C [23] of 133% and a T/C [24] of 84%.
With CC[C@]1(O)CN2CCc3c([nH]c4ccccc34)[C@@H]1[C@@H](/C=C(\C(=O)OC)c1cc3c(cc1OC)N(C)C1[C@]34CCN3CC=C[C@](CC)(C34)[C@@H](OC(C)=O)[C@]1(O)C(=O)OC)C2 (some centres not stated) [ROSEADINE] the T/C [25] was 176%.
With CC[C@@H]1C[C@H]2CN(CCc3c([nH]c4ccccc34)[C@@](C(=O)OC)(c3cc4c(cc3OC)N(C)[C@H]3[C@@](O)(C(=O)OC)[C@H](OC(C)=O)[C@]5(CC)C=CCN6CC[C@]43[C@@H]65)C2)C1 [ROSEAMINE] the T/C [26] was 161%.
CC[C@]1(O)C[C@@H]2CN(CCc3c([nH]c4ccccc34)[C@@](C(=O)OC)(c3cc4c(cc3OC)N(C)[C@H]3[C@@](O)(C(=O)OC)[C@H](OC(C)=O)[C@]5(CC)C=CCN6CC[C@]43[C@@H]65)C2)C1 [VINBLASTINE] gave a T/C [27] of 309%.
